ChEMBL document CHEMBL1201862, “PubChem BioAssay data set” (2004)
Activity calls are given as the source filed them.

Tests used:
[1] = target: Glyceraldehyde-3-phosphate dehydrogenase (Homo sapiens, UniProt P04406)
Bcl-2-related protein A1 [2] = target: T1, Bcl-2-related protein A1 (Mus musculus, UniProt Q07440); assay: Bfl-1 inhibitors blocking BH3 peptide binding, confirmation, biochemical, TR-FRET, mouse Bfl-1 (AID 621);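 note: TR-FRET binding of GST-Bfl-1 to FITC-labelled Bid peptide via terbium antibody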
T1 sequence (Q07440 whole entry): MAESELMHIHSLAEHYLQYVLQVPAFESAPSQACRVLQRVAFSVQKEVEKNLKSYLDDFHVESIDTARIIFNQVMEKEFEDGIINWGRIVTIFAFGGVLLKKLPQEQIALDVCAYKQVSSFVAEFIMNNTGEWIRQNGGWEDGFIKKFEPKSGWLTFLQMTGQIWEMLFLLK

Bcl-2-related protein A1 [3] = target: T1, Bcl-2-related protein A1; assay: Bfl-1 binding inhibitors, SAR follow-up, biochemical, fluorescence polarization (AID 1070)
Procathepsin L = Procathepsin L (Homo sapiens, UniProt P07711); assay: cathepsin L inhibitors, dose response, counter-screen for M1/M17 aminopeptidase inhibitor project, biochemical, QFRET, 1536-well (AID 2214)
Aspartyl aminopeptidase = target: T2, Aspartyl aminopeptidase (Plasmodium falciparum 3D7, UniProt Q8I2J3); assay: Counterscreen for inhibitors of M1 and M17 aminopeptidases: QFRET-based biochemical high throughput dose response assay for inhibitors of the Plasmodium falciparum M18 Aspartyl Aminopeptidase (PFM18AAP). [Related PubChem assays: 1619 (Screening assay (M17LAP inhibitors).), 1445 (Screening assay (M1AAP inhibitors).)]
T2 sequence (Q8I2J3 whole entry): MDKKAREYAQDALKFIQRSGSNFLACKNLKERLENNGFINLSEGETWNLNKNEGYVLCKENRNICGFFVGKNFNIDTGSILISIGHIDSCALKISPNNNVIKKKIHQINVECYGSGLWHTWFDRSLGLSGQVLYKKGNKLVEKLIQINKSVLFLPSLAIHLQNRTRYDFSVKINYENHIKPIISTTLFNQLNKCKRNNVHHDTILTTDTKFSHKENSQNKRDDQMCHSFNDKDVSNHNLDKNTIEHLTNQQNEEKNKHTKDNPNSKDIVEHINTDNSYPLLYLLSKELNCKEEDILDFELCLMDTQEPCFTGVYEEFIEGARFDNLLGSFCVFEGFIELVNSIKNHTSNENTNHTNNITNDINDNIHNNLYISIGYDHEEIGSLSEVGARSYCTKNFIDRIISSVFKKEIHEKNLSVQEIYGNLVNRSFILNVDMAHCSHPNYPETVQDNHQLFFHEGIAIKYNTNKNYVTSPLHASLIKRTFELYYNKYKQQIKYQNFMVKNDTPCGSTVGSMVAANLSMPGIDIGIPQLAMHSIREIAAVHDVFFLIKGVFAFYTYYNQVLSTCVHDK

Leucine aminopeptidase = target: T3, Leucine aminopeptidase (Plasmodium falciparum 3D7, UniProt Q8IL11); assay: P. falciparum M17LAP inhibitors, primary screen, biochemical, fluorogenic H-Leu-NHMec substrate, 1536-well (AID 1619); assay type: functional
T3 sequence (Q8IL11 whole entry): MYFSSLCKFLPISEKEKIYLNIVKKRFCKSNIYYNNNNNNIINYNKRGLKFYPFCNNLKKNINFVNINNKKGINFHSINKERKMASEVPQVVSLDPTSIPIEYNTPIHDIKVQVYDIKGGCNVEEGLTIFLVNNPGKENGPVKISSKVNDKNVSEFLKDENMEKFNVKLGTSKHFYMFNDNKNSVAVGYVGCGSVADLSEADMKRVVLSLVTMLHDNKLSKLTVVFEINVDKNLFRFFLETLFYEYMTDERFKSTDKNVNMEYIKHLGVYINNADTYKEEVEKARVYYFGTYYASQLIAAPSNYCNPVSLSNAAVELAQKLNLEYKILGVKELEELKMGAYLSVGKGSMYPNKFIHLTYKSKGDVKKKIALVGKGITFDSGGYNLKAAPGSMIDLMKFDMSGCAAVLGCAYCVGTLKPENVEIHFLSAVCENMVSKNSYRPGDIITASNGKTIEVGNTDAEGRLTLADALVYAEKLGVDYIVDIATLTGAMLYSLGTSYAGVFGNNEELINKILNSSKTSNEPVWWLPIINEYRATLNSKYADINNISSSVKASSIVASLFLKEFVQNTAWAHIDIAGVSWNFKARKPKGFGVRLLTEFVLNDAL

[4] = cytotoxicity toward DRD oncogenic fibroblasts, dose response, cell-based, non-viral oncogenic, luminescence (AID 1934); assay type: functional; conditions: Homo sapiens
[5] = MC4R antagonists, dose response, counter-screen for LGR2 antagonist project, cell-based, plate reader, cherry pick (AID 743444); assay type: functional;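 note: transfected HEK 293 cells stimulated with alpha-MSH peptide; potency of inhibitors of the alpha-MSH evoked signal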
[6] = A549 cell cytotoxicity, dose response, cytotoxicity control, plate reader, cherry-pick, antagonist series (AID 743412); assay type: functional, cell-based
[7] = Luminescence Cell-Based Dose Confirmation HTS to Identify Inhibitors of Platelet Dense Granule Release. [Related pubchem assays: 1663 (Primary HTS), 1678 (Summary of Project)]; assay type: functional
BJ [8] = assay: cytotoxicity toward BJ-TERT fibroblasts, dose response, cell-based, RAS-independent, luminescence (AID 1933); assay type: functional; conditions: Homo sapiens
[9] = inhibitors of SNCA 5'UTR-driven reporter translation, confirmation, H4 neuroglioma cells, luminescence (AID 1988); assay type: functional, cell-based
BJ [10] = assay: cells; assay type: functional, cell-based; conditions: Homo sapiens
[11] = target: Luciferin 4-monooxygenase (Photinus pyralis, UniProt P08659); assay: firefly luciferase enzyme inhibitors, dose response, biochemical, luminescence (AID 1891)
[12] = Luminescence-based counterscreen assay for KLF5 inhibitors: dose response cell-based high throughput screening assay to identify cytotoxic compounds using the IEC-6 intestinal epithelial cell line. [Related pubchem assays: 1700 (Primary screen.), 1834 (Confirmation screen.), 1858 (Summary AID.), 1905 (Counterscreen.)]; assay type: functional
[13] = HepG2 cell cytotoxicity, dose response, cytotoxicity control, plate reader, cherry-pick, antagonist series (AID 743416); assay type: functional, cell-based
BJ [14] = assay: cytotoxicity toward BJ-TERT-LT-ST fibroblasts, dose response, cell-based, RAS-independent, luminescence (AID 1935); assay type: functional; conditions: Homo sapiens;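 note: BJ fibroblasts immortalized with TERT plus LT and ST oncogenes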
[15] = inhibitors of firefly luciferase expression or activity, dose response, H4 neuroglioma cells, luminescence (AID 1990); assay type: functional, cell-based
[16] = LGR2 antagonists, dose response, cell-based, HEK293, CRE-luciferase reporter, cherry pick, set 2 (AID 743343); assay type: functional;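 note: transfected cells were stimulated with diluted bursicon conditioned medium after compound addition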
[17] = HEK293 cell cytotoxicity, dose response, cytotoxicity control, plate reader, cherry-picked samples (AID 743446); assay type: functional, cell-based
[18] = target: Peroxisome proliferator-activated receptor gamma/Nuclear receptor coactivator 2 (Homo sapiens, UniProt P37231); assay type: functional;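 note: agonist potency for raising coactivator recruitment to the receptor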
[19] = target: Peroxisome proliferator-activated receptor gamma/Nuclear receptor coactivator 1 (Homo sapiens, UniProt P37231); assay type: functional;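 note: agonist potency as compounds enhance coactivator SRC-1 recruitment to PPARgamma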
[20] = target: Peroxisome proliferator-activated receptor gamma/Nuclear receptor coactivator 3 (Homo sapiens, UniProt P37231); assay type: functional;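 note: agonist potency for raising coactivator recruitment to the receptor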
[21] = target: FAD-linked sulfhydryl oxidase ALR (Homo sapiens, UniProt P55789); assay: inhibitors of human ALR sulfhydryl oxidase, dose response, biochemical, H2O2 detection, luminescence, cherry-pick (AID 493248)
Bcl-2-like protein 1 = Bcl-2-like protein 1 (Homo sapiens, UniProt Q07817); assay: BCL-XL inhibitors, dose response, selectivity assay for MCL1 inhibitor project, biochemical, fluorescence polarization, 1536-well (AID 2218)
[22] = target: Induced myeloid leukemia cell differentiation protein Mcl-1 (Homo sapiens, UniProt Q07820); assay: MCL1-BIM BH3 interaction inhibitors, dose response, biochemical, fluorescence polarization, BIM-BH3 peptide, 1536-well (AID 2217)
[23] = target: Heat shock protein HSP 90-alpha (Homo sapiens, UniProt P07900); assay type: functional, organism-based
HeLa = assay: HeLa cell cytotoxicity, dose response, cytotoxicity control for MITF activator project, CellTiter-Glo luminescence, cherry-pick samples (AID 540259); assay type: functional, cell-based; conditions: Homo sapiens
A-375 [24] = assay: MITF: Counter assay: A375 proliferation Measured in Cell-Based System Using Plate Reader - 2084-03_Inhibitor_Dose_DryPowder_Activity. [Related pubchem assays (depositor defined):AID488944]; assay type: functional; conditions: Homo sapiens
[25] = Luminescence Cell-Based Dose Response HTS to Identify Activators of Luciferase Translation or Activity in H4 […] Cells. [Related pubchem assays: 1829 (Project Summary), 1814 (Primary HTS)]; assay type: functional
[26] = Luminescence Cell-Based Dose Confirmation to Identify Activators of 5'UTR Stem-Loop Driven Alpha-Synuclein mRNA Translation in H4 Neuroglioblastoma Cells. [Related pubchem assays: 1829 (Project Summary), 1814 (Primary HTS)]; assay type: functional
[27] = Luminescence Cell-Based Dose Response to Identify Activators of Luciferase Translation or Activity in H4-C Neuroglioblastoma Cells. [Related pubchem assays: 1829 (Project Summary), 1814 (Primary HTS)]; assay type: functional
A-375 [28] = assay: A375 melanoma cell viability reduction, dose response, counter-screen for MITF modulator project, cherry-pick samples, set 2 (AID 540335); assay type: functional, cell-based; conditions: Homo sapiens
H4 = assay: Luminescence Cell-Based Dose Response HTS to Identify Activators of 5'UTR Stem-Loop Driven Prion Protein mRNA Translation in H4 Neuroglioblastoma Cells. [Related pubchem assays: 1829 (Project Summary), 1814 (Primary HTS)]; assay type: functional; conditions: Homo sapiens
[29] = Luminescence Cell-Based Dose Response to Identify Activators of 5'UTR Stem-Loop Driven Prion Protein mRNA Translation in H4-C Neuroglioblastoma Cells. [Related pubchem assays: 1829 (Project Summary), 1814 (Primary HTS)]; assay type: functional

Chain of Peroxisome proliferator-activated receptor gamma/Nuclear receptor coactivator 2 (P37231 whole entry): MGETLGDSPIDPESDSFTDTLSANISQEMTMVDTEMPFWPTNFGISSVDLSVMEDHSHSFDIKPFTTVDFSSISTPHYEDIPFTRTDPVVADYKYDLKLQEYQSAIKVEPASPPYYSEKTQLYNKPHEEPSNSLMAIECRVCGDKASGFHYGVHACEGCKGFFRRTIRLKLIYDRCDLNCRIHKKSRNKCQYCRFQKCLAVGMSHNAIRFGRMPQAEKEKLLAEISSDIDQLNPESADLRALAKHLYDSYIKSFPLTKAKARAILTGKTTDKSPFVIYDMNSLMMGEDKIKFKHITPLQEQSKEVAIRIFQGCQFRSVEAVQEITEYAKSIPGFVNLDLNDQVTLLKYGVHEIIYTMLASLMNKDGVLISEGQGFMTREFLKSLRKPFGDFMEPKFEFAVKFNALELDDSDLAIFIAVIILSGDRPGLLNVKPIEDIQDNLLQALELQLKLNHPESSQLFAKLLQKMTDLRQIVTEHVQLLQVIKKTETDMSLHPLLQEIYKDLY
Chain of Peroxisome proliferator-activated receptor gamma/Nuclear receptor coactivator 2 (Q15596 whole entry, further chain): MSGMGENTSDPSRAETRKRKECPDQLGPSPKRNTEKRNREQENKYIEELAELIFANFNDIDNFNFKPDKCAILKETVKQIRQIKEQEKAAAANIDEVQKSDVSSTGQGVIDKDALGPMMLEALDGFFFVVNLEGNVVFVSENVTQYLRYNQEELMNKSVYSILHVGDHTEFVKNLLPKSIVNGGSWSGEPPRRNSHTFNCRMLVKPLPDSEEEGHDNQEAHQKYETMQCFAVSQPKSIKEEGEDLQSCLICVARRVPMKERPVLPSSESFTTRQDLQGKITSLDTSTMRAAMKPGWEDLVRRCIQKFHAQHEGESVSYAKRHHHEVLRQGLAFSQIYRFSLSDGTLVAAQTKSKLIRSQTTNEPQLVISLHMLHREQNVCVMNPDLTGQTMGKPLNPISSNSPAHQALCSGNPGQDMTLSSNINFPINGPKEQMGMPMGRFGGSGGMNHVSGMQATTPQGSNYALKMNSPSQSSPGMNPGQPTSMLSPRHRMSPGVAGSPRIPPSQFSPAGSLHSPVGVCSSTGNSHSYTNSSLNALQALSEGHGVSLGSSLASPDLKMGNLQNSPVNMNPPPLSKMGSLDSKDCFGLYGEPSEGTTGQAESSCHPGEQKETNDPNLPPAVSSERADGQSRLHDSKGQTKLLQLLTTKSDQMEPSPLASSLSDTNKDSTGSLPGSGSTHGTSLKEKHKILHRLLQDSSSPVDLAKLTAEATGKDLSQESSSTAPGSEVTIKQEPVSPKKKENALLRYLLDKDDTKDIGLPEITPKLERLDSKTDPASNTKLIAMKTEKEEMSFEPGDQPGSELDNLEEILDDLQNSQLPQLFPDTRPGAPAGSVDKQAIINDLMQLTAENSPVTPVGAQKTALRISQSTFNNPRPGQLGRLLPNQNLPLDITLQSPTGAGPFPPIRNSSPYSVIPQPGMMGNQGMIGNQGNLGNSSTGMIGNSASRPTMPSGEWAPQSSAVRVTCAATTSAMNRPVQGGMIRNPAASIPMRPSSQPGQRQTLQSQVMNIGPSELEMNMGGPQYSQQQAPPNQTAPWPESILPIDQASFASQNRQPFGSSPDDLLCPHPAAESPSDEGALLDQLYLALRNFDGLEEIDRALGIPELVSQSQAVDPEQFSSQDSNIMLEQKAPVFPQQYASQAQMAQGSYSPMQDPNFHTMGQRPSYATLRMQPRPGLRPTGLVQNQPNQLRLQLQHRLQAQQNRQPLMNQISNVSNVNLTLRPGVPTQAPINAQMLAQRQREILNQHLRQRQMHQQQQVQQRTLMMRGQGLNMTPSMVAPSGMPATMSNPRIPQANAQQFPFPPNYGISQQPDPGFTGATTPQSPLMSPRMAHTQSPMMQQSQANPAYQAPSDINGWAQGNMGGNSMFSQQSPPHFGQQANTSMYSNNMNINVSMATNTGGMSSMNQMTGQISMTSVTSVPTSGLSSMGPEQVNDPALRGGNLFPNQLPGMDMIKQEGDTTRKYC
Chain of Peroxisome proliferator-activated receptor gamma/Nuclear receptor coactivator 1 (P37231 whole entry): as the sequence (P37231 whole entry) above
Chain of Peroxisome proliferator-activated receptor gamma/Nuclear receptor coactivator 1 (Q15788 whole entry, further chain): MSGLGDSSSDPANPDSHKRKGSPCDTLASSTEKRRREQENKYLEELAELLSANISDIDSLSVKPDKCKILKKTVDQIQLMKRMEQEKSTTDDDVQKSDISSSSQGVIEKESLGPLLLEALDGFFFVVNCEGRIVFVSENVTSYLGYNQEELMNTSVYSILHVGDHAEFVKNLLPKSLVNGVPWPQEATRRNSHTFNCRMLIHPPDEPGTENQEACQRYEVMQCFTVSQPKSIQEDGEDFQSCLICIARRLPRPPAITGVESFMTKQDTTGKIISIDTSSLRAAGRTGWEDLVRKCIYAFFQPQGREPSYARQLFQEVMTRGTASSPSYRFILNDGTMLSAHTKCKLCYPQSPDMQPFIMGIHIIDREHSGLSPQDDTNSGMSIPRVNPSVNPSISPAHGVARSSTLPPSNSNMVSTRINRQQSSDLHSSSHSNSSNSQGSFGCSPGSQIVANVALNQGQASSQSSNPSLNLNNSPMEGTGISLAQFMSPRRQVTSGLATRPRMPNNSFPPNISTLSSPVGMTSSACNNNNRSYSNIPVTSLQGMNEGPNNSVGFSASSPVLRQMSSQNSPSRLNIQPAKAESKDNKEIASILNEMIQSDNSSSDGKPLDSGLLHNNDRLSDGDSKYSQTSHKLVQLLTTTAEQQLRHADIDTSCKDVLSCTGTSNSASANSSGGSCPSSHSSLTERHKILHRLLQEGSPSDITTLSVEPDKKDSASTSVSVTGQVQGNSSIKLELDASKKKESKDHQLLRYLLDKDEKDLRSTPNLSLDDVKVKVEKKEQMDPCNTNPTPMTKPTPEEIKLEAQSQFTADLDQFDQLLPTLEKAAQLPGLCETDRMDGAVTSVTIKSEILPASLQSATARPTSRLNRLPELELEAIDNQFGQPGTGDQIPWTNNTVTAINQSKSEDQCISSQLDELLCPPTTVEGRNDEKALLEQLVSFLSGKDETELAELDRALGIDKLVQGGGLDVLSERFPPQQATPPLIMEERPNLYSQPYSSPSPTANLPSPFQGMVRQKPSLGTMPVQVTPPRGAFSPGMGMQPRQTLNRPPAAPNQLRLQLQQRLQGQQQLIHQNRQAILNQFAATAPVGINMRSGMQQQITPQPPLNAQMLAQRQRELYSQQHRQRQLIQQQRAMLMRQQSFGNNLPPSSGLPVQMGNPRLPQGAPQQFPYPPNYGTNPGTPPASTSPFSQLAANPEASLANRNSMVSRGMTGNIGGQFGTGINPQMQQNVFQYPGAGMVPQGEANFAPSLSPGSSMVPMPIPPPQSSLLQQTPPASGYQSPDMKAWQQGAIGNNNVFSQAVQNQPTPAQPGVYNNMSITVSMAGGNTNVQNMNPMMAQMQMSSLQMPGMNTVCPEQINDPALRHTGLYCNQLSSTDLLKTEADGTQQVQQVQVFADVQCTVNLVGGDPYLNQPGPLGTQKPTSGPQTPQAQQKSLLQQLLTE
Chain of Procathepsin L (P07711 whole entry): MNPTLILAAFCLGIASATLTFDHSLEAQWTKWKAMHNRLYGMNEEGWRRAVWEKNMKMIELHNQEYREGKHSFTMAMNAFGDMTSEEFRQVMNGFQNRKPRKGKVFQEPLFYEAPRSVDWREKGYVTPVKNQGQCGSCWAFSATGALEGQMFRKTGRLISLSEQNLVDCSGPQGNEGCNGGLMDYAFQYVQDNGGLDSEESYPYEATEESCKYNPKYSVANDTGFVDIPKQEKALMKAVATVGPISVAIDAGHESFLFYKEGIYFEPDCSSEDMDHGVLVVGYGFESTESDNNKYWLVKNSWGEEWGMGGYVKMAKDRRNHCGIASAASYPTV
Chain of Glyceraldehyde-3-phosphate dehydrogenase (P04406 whole entry): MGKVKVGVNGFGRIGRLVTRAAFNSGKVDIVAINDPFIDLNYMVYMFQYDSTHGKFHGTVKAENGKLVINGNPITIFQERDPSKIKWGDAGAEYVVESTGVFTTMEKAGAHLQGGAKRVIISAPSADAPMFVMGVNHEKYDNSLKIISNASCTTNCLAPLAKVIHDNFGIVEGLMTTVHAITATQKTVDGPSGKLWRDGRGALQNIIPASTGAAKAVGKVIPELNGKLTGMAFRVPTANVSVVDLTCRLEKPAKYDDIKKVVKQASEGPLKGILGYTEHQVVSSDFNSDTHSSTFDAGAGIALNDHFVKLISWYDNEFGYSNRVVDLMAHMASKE
Chain of Induced myeloid leukemia cell differentiation protein Mcl-1 (Q07820 whole entry): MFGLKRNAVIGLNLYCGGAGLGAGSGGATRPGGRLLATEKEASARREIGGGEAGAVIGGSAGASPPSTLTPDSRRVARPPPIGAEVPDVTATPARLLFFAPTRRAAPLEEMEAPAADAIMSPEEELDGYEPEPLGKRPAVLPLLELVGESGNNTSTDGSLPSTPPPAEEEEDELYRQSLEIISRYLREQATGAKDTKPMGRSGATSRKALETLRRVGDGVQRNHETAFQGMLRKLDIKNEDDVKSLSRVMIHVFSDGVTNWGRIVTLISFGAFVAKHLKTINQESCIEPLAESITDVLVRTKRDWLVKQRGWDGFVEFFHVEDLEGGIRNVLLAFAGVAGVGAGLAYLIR

O=C1C(Cl)=C(N2CCOCC2)C(=O)N1c1ccc(Cl)c(Cl)c1
IC50 [1]: > 100 µM (not active) | IC50 (Bcl-2-related protein A1 [2]): 1.29 µM (active) | IC50 (Bcl-2-related protein A1 [3]): 1.51 µM (active)

COc1ccccc1N1CCN(C2=C(Cl)C(=O)N(c3ccc(Cl)c(Cl)c3)C2=O)CC1
IC50 [1]: > 100 µM (not active) | IC50 (Bcl-2-related protein A1 [2]): 6.25 µM (active) | IC50 (Bcl-2-related protein A1 [3]): 9.57 µM (active)

Cc1ccc(Nc2nnc(SC3CCOC3=O)s2)cc1 (centres undefined)
IC50 (Procathepsin L): > 59.6 µM (not active) | IC50 (Aspartyl aminopeptidase): > 73.5 µM (not active) | IC50 (Leucine aminopeptidase): 1.94 µM (active)

CN(C)c1ccc(Nc2nc(N)c3ccccc3n2)cc1
EC50 [4]: 11.8 µM (active) | AC50 [5]: 1.89 µM (active) | AC50 [6]: 23.7 µM (active) | EC50 [7]: 0.234 µM (active) | EC50 (BJ [8]): 10.6 µM (active) | EC50 [9]: 10.1 µM (inconclusive) | EC50 (BJ [10]): 12.6 µM (active) | EC50 [11]: 1.37 µM (active) | IC50 [12]: 19.1 µM (not active) | AC50 [13]: 22.6 µM (active) | EC50 (BJ [14]): > 150 µM (inconclusive) | EC50 [15]: > 60 µM (inconclusive) | AC50 [16]: 1.57 µM (active) | AC50 [17]: 24.5 µM (active)

CCc1nc(SCc2ccc(F)cc2)[nH]c(=O)c1C#N
EC50 [18]: > 79.4 µM (not active) | EC50 [19]: > 79.4 µM (not active) | EC50 [20]: > 79.4 µM (not active) | AC50 [21]: 0.622 µM (active)

Cc1cc[n+](-c2[n-]c(=O)sc2/C=N/NC(=O)CCn2c3ccccc3c3ccccc32)cc1
IC50 (Bcl-2-like protein 1): 27.6 µM (not active) | IC50 [22]: 14.1 µM (not active)

CCC1CCc2c(sc(NC(=O)C3CC=CCC3C(=O)O)c2C#N)C1 (centres undefined)
IC50 (Procathepsin L): > 59.6 µM (not active) | IC50 (Aspartyl aminopeptidase): > 73.5 µM (not active) | IC50 (Leucine aminopeptidase): < 1 µM (active)

C/C(=N\Nc1nc2ccccc2s1)c1ccc(Br)s1
EC50 [18]: > 79.4 µM (not active) | EC50 [19]: > 79.4 µM (not active) | EC50 [20]: > 79.4 µM (not active) | AC50 [23]: 3.85 µM (active)

COc1ccc(/C=N/N=C2/SCC(=O)N2Cc2ccccc2)cc1
AC50 (HeLa): 164 µM (active) | AC50 (A-375 [24]): > 35 µM (active) | EC50 [25]: < 0.1 µM (active) | EC50 [26]: 0.581 µM (active) | EC50 [27]: 0.335 µM (active) | AC50 (A-375 [28]): > 35 µM (active) | EC50 (H4): > 120 µM (not active) | EC50 [29]: 0.361 µM (active)
